Data set [1] in a line: Antimicrobial residue concentration and depletion in muscle of treated pigs within the withdrawal period (LC-MS/MS or HPLC-FLD). It is filed as in vivo. Conditions: for concentration at 2 day of withdrawal period: withdrawal period Day 2, pig; for concentration at 3 day of withdrawal period: withdrawal period Day 3, pig. An excerpt:
To obtain samples containing antimicrobial compounds administered in vivo, 93 piglets (62 female, 31 male) with an average weight of 43.00 ± 12.79 kg were provided at treatment onset. These piglets were untreated animals that remained on the premises of the Faculty of Veterinary Sciences at the University of Zaragoza (Zaragoza, Spain) 40 days before administration of the compounds. Both during the acclimatization and withdrawal periods, animals were fed ad libitum with a special mixed feed that was free of antibiotics ([…], Spain), and water was provided from a separated, controlled water circuit. Piglets were raised in separate pens depending on the antibiotic administrated. After administration, animals were slaughtered at preset intervals within the withdrawal period in order to obtain samples containing different antimicrobial concentrations above and below the MRLs for muscle. Figure S1 indicates the slaughter days and the withdrawal periods set by the manufacturer for each antimicrobial compound administered. Between one and three piglets were slaughtered on the same day post-administration. The day of slaughter was calculated from the first day after the last antimicrobial treatment dose. […] Apart from samples containing antimicrobial compounds administered in vivo, and as a part of the sample bank, 15 of the 93 piglets were slaughtered after the acclimatization period and before treatment onset. Animals were stunned and slaughtered following the guidelines established by European Council Regulation (EC) No. 1099/2009 [39] regarding the protection of animals at the time of slaughter or killing. A penetrative captive bolt gun was used to stun the pigs, positioning it firmly against the skin, in the middle of the forehead, 2 cm above the line of the eyes, aiming towards the tail. This was followed by complete exsanguination carried out by incision in the jugular furrow at the base of the neck to sever all the major blood vessels arising from the heart. The samples obtained from them were used as blank samples for analysis. […] Samples were immediately frozen at -20 °C until analysis. For HPLC-FLD analyses, matrix solid phase dispersion (MSPD) was used. A total of 1.00 ± 0.01 g of tissue was weighed. Internal quality control samples were spiked at this point. […] It was introduced into a 25 mL reservoir and compacted. Clean-up was made with 8 mL of hexane, and quinolones were eluted with 15 mL acetonitrile/methanol (1:1) acidified with acetic acid 1%. […] The extraction procedure for LC-MS/MS determination was based on Chico et al.. […] All samples were spiked with IS at this point, and calibrants and internal quality control samples were prepared by spiking the corresponding amount of standard working solution. A total of 200 μL of 0.1 M EDTA was added, followed by 10 mL of 70% methanol, and samples were vortexed for 30 s, swung for 15 min, and finally centrifuged at 4500 rcf for 10 min at a temperature below 10 °C (Heraeus Multifuge X3 FR, Heraeus, Hanau, Germany). Then, 500 μL of supernatant was collected and diluted by adding 1500 μL of water. Extracts were filtered through 0.2 μm pore filters directly into LC-MS/MS vials. […] Mobile phase consisted of eluent A: phosphoric acid with trimethylamine buffer (pH = 3), and eluent B: acetonitrile, in isocratic mode (21:79) with a flow rate of 1 mL/min. Injected volume was 50 μL. […] The same mobile phase and gradient conditions as in SCIEX instruments were applied. Injected volume was 10 μL. Two ESI+ MRM transitions were monitored for each compound (Table S5). […] Results were represented as the mean ± standard deviation using the PRISM program (GraphPad Software, Inc., San Diego, USA). The rates of elimination (λz) of antibiotics from muscle and blood were determined by regression analysis. […]

A short description of data set [2]: Antimicrobial residue concentration and depletion in blood (serum) of treated pigs within the withdrawal period (LC-MS/MS). It is filed as in vivo. An excerpt: To obtain samples containing antimicrobial compounds administered in vivo, 93 piglets (62 female, 31 male) with an average weight of 43.00 ± 12.79 kg were provided at treatment onset. These piglets were untreated animals that remained on the premises of the Faculty of Veterinary Sciences at the University of Zaragoza (Zaragoza, Spain) 40 days before administration of the compounds. Both during the acclimatization and withdrawal periods, animals were fed ad libitum with a special mixed feed that was free of antibiotics ([…], Spain), and water was provided from a separated, controlled water circuit. Piglets were raised in separate pens depending on the antibiotic administrated. After administration, animals were slaughtered at preset intervals within the withdrawal period in order to obtain samples containing different antimicrobial concentrations above and below the MRLs for muscle. Figure S1 indicates the slaughter days and the withdrawal periods set by the manufacturer for each antimicrobial compound administered. Between one and three piglets were slaughtered on the same day post-administration. The day of slaughter was calculated from the first day after the last antimicrobial treatment dose. […] Apart from samples containing antimicrobial compounds administered in vivo, and as a part of the sample bank, 15 of the 93 piglets were slaughtered after the acclimatization period and before treatment onset. Animals were stunned and slaughtered following the guidelines established by European Council Regulation (EC) No. 1099/2009 [39] regarding the protection of animals at the time of slaughter or killing. A penetrative captive bolt gun was used to stun the pigs, positioning it firmly against the skin, in the middle of the forehead, 2 cm above the line of the eyes, aiming towards the tail. This was followed by complete exsanguination carried out by incision in the jugular furrow at the base of the neck to sever all the major blood vessels arising from the heart. The samples obtained from them were used as blank samples for analysis. Blood was collected not only from slaughtered animals, but also from living animals on each day of slaughter. […] For quinolones in blood serum samples, a LC-MS/MS method was set up using a SCIEX Exion LC coupled to TripleQuad 6500+ triple quadrupole detector equipped with an Acquity Ultra Performance Liquid Chromatography Ethylene Bridged Hybrid (UPLC BEH) C18 (1.7 μm, 2.1 × 100 mm) column. Mobile phase consisted of eluent A: 0.1% formic acid in water, and eluent B: 0.1% formic acid in acetonitrile at a flow rate of 0.4 mL/min. […] Injected volume was 5 μL. Analytes were detected using positive electrospray ionization (ESI+) in multiple reaction monitoring (MRM) mode, and two transitions were monitored for each compound of interest (Table S4). […] The same mobile phase and gradient conditions as in SCIEX instruments were applied. […] Two ESI+ MRM transitions were monitored for each compound (Table S5). […] Results were represented as the mean ± standard deviation using the PRISM program (GraphPad Software, Inc., San Diego, USA). The rates of elimination (λz) of antibiotics from muscle and blood were determined by regression analysis. The corresponding half-lives of elimination were calculated according to the following equation: Half-life of elimination.

The mark [3] stands for this setting: forequarter muscle, intramuscular, read-out: Concentration in Forequarters.
The mark [4] stands for this setting: hindquarter muscle, intramuscular, read-out: Concentration in Hindquarters.
[5] abbreviates: loin muscle, intramuscular, read-out: Concentration in Loins.
[6] abbreviates: over the sample bank of treated piglets.

Structures are written as SMILES. Like-named read-outs stand apart in the source and are kept apart here. Marks after values point to notes of the source that are not given here.

With `COc1ccc(NS(=O)(=O)c2ccc(N)cc2)nn1` [Sulfamethoxypyridazine, sulfamethoxypyridazine], the half-life in data set [1] (both sexes, intramuscular, pig muscle, T1/2=Ln(2)/λz, read-out: T1/2 half-life of elimination (MUSCLE) (converted)) was 13.2 h; in data set [2] (both sexes, intramuscular, pig blood serum, T1/2=Ln(2)/λz, read-out: T1/2 half-life of elimination (BLOOD) (converted)) it was 13.2 h. Besides, the concentration at 2 day of withdrawal period in data set [1] (setting [3]) worked out at 311 ± 22.6 ng/g; in data set [1] (setting [4]), 351 ± 20.1 ng/g; in data set [1] (setting [5]), 349 ± 16.5 ng/g. Moreover, the concentration at 3 day of withdrawal period in data set [1] (setting [3]) was found to be 43 ng/g; in data set [1] (setting [4]), 40.5 ± 0.71 ng/g; in data set [1] (setting [5]), 49.5 ± 0.71 ng/g. Besides, in data set [1] (setting [6]), the “Maximum concentration value in Muscle” value is 1179.67 ± 41.88 µg/kg. For the same molecule, in data set [1] (setting [6]), the “Minimum concentration value in Muscle” value was found to be 14.00 ± 1.41 µg/kg. Moreover, the “Slope (MUSCLE)” value in data set [1] (pig muscle, regression of concentration over the withdrawal period, deep intramuscular treatment) was −0.5494 ± 0.0237 ^a. In data set [2] (setting [6]), the “Maximum concentration value in Blood” value came to 4098.00 ± 201.34 µg/kg. Moreover, the “Minimum concentration value in Blood” value in data set [2] (setting [6]) was found to be 23.67 ± 20.23 µg/kg. For the same molecule, the “Slope (BLOOD)” value in data set [2] (pig blood serum, regression of concentration over the withdrawal period, deep intramuscular treatment) is −0.5496 ± 0.02589 ^a.

Source of the values: PMC7235904, “Is Blood a Good Indicator for Detecting Antimicrobials in Meat? Evidence for the Development of In Vivo Surveillance Methods” (Antibiotics, 2020).
